# What was measured:
# A431 cells = experiment: Cell viability assay (Cell Titer-Glo); format: cell-based; conditions: first of two experiments (first value in cell)
# Method: (§1) PBRM-polymer-drug conjugates were evaluated for their antiproliferation properties in tumor cell lines in vitro using Cell Titer-Glo (Promega Corp). Cells were plated in black walled 96-well plate and allowed to adhere overnight at 37° C. in a humidified atmosphere of 5% CO2. SKBR3, BT474, NCI-N87 cells (HER2 expressing cells), MCF7 cells (HER2 low expressing levels cells) and JIMT1 cells (HER2 medium expression level cells) were plated at a density of 5,000 cells per well. The next day the medium was replaced with 50 μL fresh medium and 50 μL of 2× stocks of PBRM-polymer-drug conjugate, drug polymer conjugate or drug were added to appropriate wells, mixed and incubated for 72 h. Cell Titer-Glo reagent was added to the wells at room temperature and the luminescent signal was measured after 10 min using a SpectraMax M5 plate reader (Molecular Devices). Dose response curves were generated using SoftMax Pro software. IC50 values were determined from four-parameter curve fitting.
# LLC1 cells = experiment: Cell viability assay (Cell Titer-Glo); format: cell-based; conditions: 5T4 negative control cells; second of two experiments
# Method: as §1
# HL-60 cells = experiment: Cell viability assay (Cell Titer-Glo); format: cell-based; conditions: 72 h incubation; CD33 expressing cells
# Method: Dose response curves were generated using SoftMax Pro software. IC50 values were determined from four-parameter curve fitting.
# CD33 expressing cells HL-60 were passed at a density of 5,000 cells per well and treated with PBRM-polymer-drug conjugate on the same day. After 72 h incubation, the cells were analyzed using the same procedure described above.
# BT474 cells = experiment: Cell viability assay (Cell Titer-Glo); format: cell-based; conditions: 72 h incubation
# Method: as §1
# JIMT1 cells = experiment: Cell viability assay (Cell Titer-Glo); format: cell-based; conditions: 72 h incubation; HER2 medium expression
# Method: as §1
# [1] = Mouse tissue distribution after administration of PBRM-polymer-drug conjugates; format: in vivo, mice
# Method: To determine the concentration of the free drug in the sample, the acidified sample was treated with acetonitrile. The free drug was extracted from the supernatant and analyzed by LC-MS/MS.
# Female CB-17 SCID mice were inoculated subcutaneously with BT474 tumors (n=4 for each group).
# At 48 hours post administration, the mice were sacrificed and the blood was collected by terminal cardiac.
# MCF7 cells = experiment: Cell viability assay (Cell Titer-Glo); format: cell-based; conditions: 72 h incubation; HER2 low expressing cells
# Method: as §1
# NCI-N87 cells = experiment: Cell viability assay (Cell Titer-Glo); format: cell-based; conditions: 72 h incubation
# Method: as §1
# SKBR3 cells = experiment: Cell viability assay (Cell Titer-Glo); format: cell-based; conditions: 72 h incubation
# Method: as §1
# hErbB2 = hErbB2 (Homo sapiens, UniProt P04626); experiment: Ligand binding by surface plasmon resonance (SPR); conditions: 25° C., immobilized hErbB2
# Method: The kinetic binding of the PBRM-polymer-drug conjugate to an immobilized receptor was determined by BIAcore SPR.
compound,measurement,setting,value
"CC[C@H](C)[C@@H]([C@@H](CC(=O)N1CCC[C@H]1[C@H](OC)[C@@H](C)C(=O)N[C@@H](Cc1ccccc1)C(=O)NCCCO)OC)N(C)C(=O)[C@@H](NC(=O)[C@H](C(C)C)N(C)C)C(C)C [AF-HPA, auristatin F hydroxypropyl amide]",IC50,A431 cells,0.7 nM
same,IC50,LLC1 cells,> 100 nM
same,IC50,HL-60 cells,4.8 nM
same,IC50,BT474 cells,1.01 nM
same,IC50,JIMT1 cells,0.86 nM
same,Metabolism of released unconjugated AF-HPA in plasma,[1]; in plasma,not converted to AF
same,Metabolism of released unconjugated AF-HPA in tissue,[1]; in tissue,further metabolized to AF
same,IC50,MCF7 cells,4.4 nM
same,IC50,NCI-N87 cells,0.42 nM
ado-trastuzumab emtansine [Kadcyla ®],IC50,BT474 cells,2.4 nM
same,IC50,SKBR3 cells,0.23 nM
same,IC50,JIMT1 cells,18 nM
same,ka (association rate constant),hErbB2,4.61 ± 0.2 × 10^5 M^−1s^−1
same,kd (dissociation rate constant),hErbB2,3.17 ± 0.9 × 10^−5 s^−1
same,IC50,MCF7 cells,38.6 nM
same,IC50,NCI-N87 cells,0.09 nM
